In article PMC7565988, “Insight into the Anticancer Activity of Copper(II) 5-Methylenetrimethylammonium-Thiosemicarbazonates and Their Interaction with Organic Cation Transporters” (Biomolecules, 2020):
Read-outs that look alike come from different tables or passages of the source.

Assays:
[1] = tested on: Colo 205 doxorubicin-sensitive colonic adenocarcinoma cells; experiment: MTT cytotoxicity (24 h) / antiproliferation (72 h) assay; assay type: cell-based, human; conditions: read-out: Colo205 IC50
Method: Human doxorubicin-sensitive Colo 205 (ATCC-CCL-222) and multidrug resistant Colo 320 (overexpressing ABCB1 (MDR1)-LRP (ATCC-CCL-220.1)) colonic adenocarcinoma cell lines were purchased from LGC Promochem, Teddington, UK. The cells were cultured in RPMI 1640 medium supplemented with 10% heat-inactivated fetal bovine serum, 2 mM L-glutamine, 1 mM Na-pyruvate and 100 mM Hepes. The cell lines were incubated at 37 °C, in a 5% CO2, 95% air atmosphere. The semi-adherent human colon cancer cells were detached with Trypsin-Versene (EDTA) solution for 5 min at 37 °C.
(§1) In the study non-cancerous human embryonic lung fibroblast MRC-5, human colonic adenocarcinoma cell line (doxorubicin-sensitive Colo 205, multidrug resistant Colo 320) and neuroblastoma cell line SH-SY5Y were used to determine the effect of compounds on cell growth. The effects of increasing concentrations of compounds on cell growth were tested in 96-well flat-bottomed microtiter plates. The compounds were diluted in a volume of 100 μL of medium.
In case of the colonic adenocarcinoma cells, the two-fold serial dilutions of compounds were prepared in 100 μL of RPMI 1640, horizontally. The semi-adherent colonic adenocarcinoma cells were treated with Trypsin–Versene (EDTA) solution. The cells were adjusted to a density of 2 × 10^4 cells in 100 μL of RPMI 1640 medium, and were added to each well, with the exception of the medium control wells. The final volume of the wells containing compounds and cells was 200 μL.
(§2) The culture plates were incubated at 37 °C for 24 h; at the end of the incubation period, 20 μL of MTT (thiazolyl blue tetrazolium bromide, Sigma) solution (from a stock solution of 5 mg/mL) were added to each well. After incubation at 37 °C for 4 h, 100 μL of sodium dodecyl sulfate (SDS) (Sigma) solution (10% in 0.01 M HCI) were added to each well and the plates were further incubated at 37 °C overnight. Cell growth was determined by measuring the optical density (OD) at 540/630 nm with Multiscan EX ELISA reader (Thermo Labsystems, Cheshire, WA, USA). […] Curves were fitted by GraphPad Prism software using the sigmoidal dose-response model (comparing variable and fixed slopes).
(§3) The method is similar to the one described in the assay for cytotoxic effect. […] The culture plates were incubated at 37 °C for 72 h and after the incubation time, the plates were stained with MTT according to the previous experimental protocol described for the cytotoxicity assay.

[2] = tested on: SH-SY5Y neuroblastoma cells; experiment: as above; assay type: cell-based, human; conditions: MTT
Method: SH-SY5Y (ATCC® CRL-2266™) neuroblastoma cell line was purchased from LGC Promochem, Teddington, UK. The cell line was cultured in Eagle’s Minimal Essential Medium (EMEM, containing 4.5 g/L glucose) supplemented with a non-essential amino acid mixture, a selection of vitamins and 10% heat-inactivated foetal bovine serum. The cell line was incubated at 37 °C, in a 5% CO2, 95% air atmosphere.
as §1
The adherent human embryonal lung fibroblast and SH-SY5Y neuroblastoma cells were cultured in 96-well flat-bottomed microtiter plates, using EMEM supplemented with 10% heat-inactivated foetal bovine serum. The density of the cells was adjusted to 2 × 10^4 cells in 100 μL per well, the cells were seeded for 24 h at 37 °C, 5% CO2, then the medium was removed from the plates containing the cells, and the dilutions of compounds previously made in a separate plate were added to the cells in 200 μL.
as §2, §3

[3] = parameters: method as in doi:10.1002/ejic.201200360; conditions: pure water; cited from earlier work
[4] = parameters: method as in doi:10.1002/ejic.201200360; conditions: pH 7.4; cited from earlier work
[5] = target: T1, OCT1 (Homo sapiens, UniProt O15245); parameters: method as in PMID 14576340; conditions: reference inhibitor; cited from earlier work
T1 construct: expressed in transfected cells
T1 sequence (O15245 1-554): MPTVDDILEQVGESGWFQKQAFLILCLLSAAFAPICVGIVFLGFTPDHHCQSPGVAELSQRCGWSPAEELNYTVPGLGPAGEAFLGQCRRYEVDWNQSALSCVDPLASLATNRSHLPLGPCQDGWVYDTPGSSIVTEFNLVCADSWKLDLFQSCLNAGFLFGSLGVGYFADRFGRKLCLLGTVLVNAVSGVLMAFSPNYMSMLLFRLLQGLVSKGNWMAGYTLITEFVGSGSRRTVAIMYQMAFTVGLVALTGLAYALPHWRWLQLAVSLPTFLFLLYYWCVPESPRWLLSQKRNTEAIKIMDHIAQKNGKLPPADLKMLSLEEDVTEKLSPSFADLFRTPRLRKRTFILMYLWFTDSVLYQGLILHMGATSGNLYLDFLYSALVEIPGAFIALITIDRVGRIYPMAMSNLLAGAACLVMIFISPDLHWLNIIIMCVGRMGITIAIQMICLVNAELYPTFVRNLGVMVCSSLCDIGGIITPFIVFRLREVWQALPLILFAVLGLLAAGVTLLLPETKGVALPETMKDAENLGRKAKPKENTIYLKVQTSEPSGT

[6] = target: T2, OCT2 (Homo sapiens, UniProt O15244); parameters: method as in PMID 14576340; conditions: reference inhibitor; cited from earlier work
T2 construct: expressed in transfected cells
T2 sequence (O15244 1-555): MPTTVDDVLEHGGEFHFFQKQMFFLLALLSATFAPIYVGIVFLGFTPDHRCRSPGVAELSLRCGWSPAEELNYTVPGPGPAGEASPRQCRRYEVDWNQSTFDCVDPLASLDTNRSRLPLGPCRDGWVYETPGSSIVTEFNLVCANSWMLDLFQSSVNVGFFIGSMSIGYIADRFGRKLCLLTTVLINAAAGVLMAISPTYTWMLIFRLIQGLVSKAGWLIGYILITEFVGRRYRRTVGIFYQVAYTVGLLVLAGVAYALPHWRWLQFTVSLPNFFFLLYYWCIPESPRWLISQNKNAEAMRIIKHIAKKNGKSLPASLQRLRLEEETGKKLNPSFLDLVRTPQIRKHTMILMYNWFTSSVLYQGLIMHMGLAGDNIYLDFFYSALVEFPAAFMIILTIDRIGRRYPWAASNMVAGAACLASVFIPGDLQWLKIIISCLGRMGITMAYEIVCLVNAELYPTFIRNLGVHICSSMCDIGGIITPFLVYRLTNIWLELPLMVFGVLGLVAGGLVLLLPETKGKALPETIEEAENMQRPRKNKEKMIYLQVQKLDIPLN

[7] = target: T3, OCT3 (Homo sapiens, UniProt O75751); parameters: method as in PMID 14576340; conditions: reference inhibitor; cited from earlier work
T3 construct: expressed in transfected cells
T3 sequence (O75751 1-556): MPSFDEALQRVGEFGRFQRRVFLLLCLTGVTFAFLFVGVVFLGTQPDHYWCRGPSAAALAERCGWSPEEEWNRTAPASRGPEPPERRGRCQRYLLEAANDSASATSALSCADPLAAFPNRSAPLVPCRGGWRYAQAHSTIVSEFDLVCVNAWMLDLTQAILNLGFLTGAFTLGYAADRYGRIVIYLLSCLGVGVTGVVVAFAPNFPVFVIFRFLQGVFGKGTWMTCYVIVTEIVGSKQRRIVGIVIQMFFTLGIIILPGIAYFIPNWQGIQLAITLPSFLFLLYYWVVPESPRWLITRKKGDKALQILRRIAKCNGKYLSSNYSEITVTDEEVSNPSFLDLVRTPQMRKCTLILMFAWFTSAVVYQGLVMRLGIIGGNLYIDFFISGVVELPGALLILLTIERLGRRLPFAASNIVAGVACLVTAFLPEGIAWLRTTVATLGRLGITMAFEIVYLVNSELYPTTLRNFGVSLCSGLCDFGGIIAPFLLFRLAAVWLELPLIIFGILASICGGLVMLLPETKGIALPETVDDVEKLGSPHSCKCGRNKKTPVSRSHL

N.N.[Cl][Pt][Cl] [Cisplatin, reference compound]
IC50 ([1]; 24 h exposure): 68.8 ± 5.08 µM
IC50 ([1]; 72 h exposure): 8.14 ± 1.59 µM
IC50 ([2]; 24 h exposure): 26 ± 2.38 µM
IC50 ([2]; 72 h exposure): 0.65 ± 0.08 µM

NC(=S)N/N=C/c1ccccc1O [STSC, salicylaldehyde thiosemicarbazone]
pKa of the phenolic OH moiety [3]: 8.88
logD7.4 [4]: +1.74

CCN1/C(=C/c2ccc3ccccc3[n+]2CC)C=Cc2ccccc21 [D-22, decynium-22]
IC50 [5]: 0.98 ± 0.31 µM
IC50 [6]: 1.13 ± 0.19 µM
IC50 [7]: 0.09 ± 0.01 µM
